Data on one compound can be found in US10874106B2, “Method of regulating plant growth” (ROTAM AGROCHEM INTERNATIONAL COMPANY LIMITED, priority 2012, dated 2020).

Holding throughout (assay type): in vivo
For one test, the system named is soybean plants. Description: Growth of young soybean plants treated with clomazone versus untreated plants. Here is the method:
(§1) Sugarcane plants are treated by the application of a commercially available concentrate formulation of clomazone (Centium 360 CS®; a suspension concentrate of microencapsulated clomazone at a concentration of 360 g/l). The concentrate formulation is dispersed in water and diluted, in a manner conventional in the art, to give an aqueous spray composition. The spray composition is applied to the sugarcane plants in an amount to apply clomazone at a rate of 120 g/hectare.
Young soybean plants are treated in an analogous manner to that described in Example 1.
The growth of the soybean plants is monitored and compared with the growth of soybean plants of the same age and grown under the same conditions, but without treatment with clomazone.

The next test relates to sugarcane plants. Description: Growth of sugarcane plants treated with clomazone versus untreated plants. On the procedure: as §1
The growth of the sugarcane plants is monitored and compared with the growth of sugarcane plants grown under the same conditions, but without treatment with clomazone.

In a further test the test system is oilseed rape plants. Description: Growth of young oilseed rape plants treated with clomazone versus untreated plants. Here is the method:
as §1
Young oilseed rape plants are treated in an analogous manner to that described in Example 1.
The growth of the oilseed rape plants is monitored and compared with the growth of oilseed rape plants of the same age and grown under the same conditions, but without treatment with clomazone.

A further test deals with potato plants. Description: Growth of young potato plants treated with clomazone versus untreated plants. Here is the method:
as §1
Young potato plants are treated in an analogous manner to that described in Example 1.
The growth of the potato plants is monitored and compared with the growth of potato plants of the same age and grown under the same conditions, but without treatment with clomazone.

In the next test the test system is rice plants. The test can be described thus: Growth of young rice plants treated with clomazone versus untreated plants. On the procedure: as §1
Young rice plants are treated in an analogous manner to that described in Example 1.
The growth of the rice plants is monitored and compared with the growth of rice plants of the same age and grown under the same conditions, but without treatment with clomazone.

[1] abbreviates: treated analogously to Example 1.
Where [2] appears, read: treated analogously to Example 1, versus untreated plants.
The mark [3] stands for this setting: clomazone 120 g/hectare spray, versus untreated plants.

Regarding `CC1(C)CON(Cc2ccccc2Cl)C1=O` [clomazone, 2-(2-chlorophenyl)methyl-4,4-dimethyl-3-isoxazolidinone], the “growth of the treated plants in comparison to the untreated plants” value in the test with soybean plants (setting [1]) was “significantly improved”; in the test with sugarcane plants (Centium 360 CS diluted in water, sprayed, clomazone 120 g/hectare), “significantly improved”; with oilseed rape plants (setting [1]), “significantly improved”; in the test with potato plants (setting [1]), “significantly improved”; with rice plants (setting [1]), “significantly improved”. Moreover, the average height entry with soybean plants (setting [2]), in the test with sugarcane plants (setting [3]), in the test with oilseed rape plants (setting [2]), with potato plants (setting [2]) and in the test on rice plants (setting [2]) was “greater” each time. In addition, the “average leaf blade area” value in the test with soybean plants (setting [2]), with sugarcane plants (setting [3]), with oilseed rape plants (setting [2]), in the test with potato plants (setting [2]) and with rice plants (setting [2]) was “larger” each time. For the same compound, the shoot growth result in the test on soybean plants (setting [2]), in the test with sugarcane plants (setting [3]), in the test on oilseed rape plants (setting [2]), in the test with potato plants (setting [2]) and with rice plants (setting [2]) was “increased” each time.
